Data from patent US20110105397A1, “METHOD FOR TREATING HEART FAILURE WITH STRESSCOPIN-LIKE PEPTIDES” (priority 2009, published 2011).
Where a SMILES comes first, the peptide text is derived from it. The star is where a group is joined. Succinimide(1-Et,3-yl) = CCN1C(=O)CC(*)C1=O

Target: T1, human CRHR2 (Homo sapiens, UniProt Q13324)
T1 construct: expressed in transfected cells
T1 sequence (Q13324 1-411): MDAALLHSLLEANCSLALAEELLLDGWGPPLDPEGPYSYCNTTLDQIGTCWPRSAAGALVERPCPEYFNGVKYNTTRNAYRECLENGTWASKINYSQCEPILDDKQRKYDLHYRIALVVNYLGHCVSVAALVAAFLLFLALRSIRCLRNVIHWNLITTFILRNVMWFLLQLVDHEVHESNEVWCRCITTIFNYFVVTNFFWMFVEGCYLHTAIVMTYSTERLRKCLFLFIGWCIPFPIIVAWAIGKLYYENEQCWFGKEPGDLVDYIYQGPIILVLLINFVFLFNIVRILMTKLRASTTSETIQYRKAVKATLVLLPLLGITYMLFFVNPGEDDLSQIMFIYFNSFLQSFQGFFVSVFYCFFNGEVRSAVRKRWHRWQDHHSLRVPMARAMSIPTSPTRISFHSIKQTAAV
Assay: cAMP assay, h-CRHR2 transfected SK-N-MC cells
Type: cell-based
Conditions: Table 13; for EC50: cysteine mutation, N-ethylmaleimide capping, pegylation, read-out: pA50 (converted); for Log DR [M]: h-SCP control pA50 minus test compound pA50 within the same assay batch
Description: The concentration required for 50% maximum effect (A50) was 0.4 nM.
Human CRHR1 (accession number X72304) or CRHR2 (accession number U34587) were cloned into pcDNA3.1/Zeo expression vector and stably transfected into SK—N-MC cells by electroporation. Cells were maintained in MEM w/Earl's Salt with 10% FBS, 50 I.U. penicillin, 50 μg/ml streptomycin, 2 mM L-glutamine, 1 mM sodium pyruvate and 0.1 mM non-essential amino acids, 600 μg/ml G418. Cells were grown at 37° C. in 5% CO2
Cells were plated in 96-well tissue culture dishes (Biocoat from BD Biosciences) overnight at 50,000 cell/well. Cells were washed with PBS then resuspended in DMEM F-12 without phenol red, containing 10 μM isobutylmethylxanthine (IBMX). Cells were incubated with the peptides at concentrations ranging from 1 pM to 10 μM for 60 min at 37° Celsius. […] Forskolin (10 μM), a direct stimulant of adenylate cyclase, was used as positive control. The assays were stopped by the addition of 0.5 M HCl and mixing by orbital rotation for 2 h at 4° Celsius.
To assess the activity of the inventive polypeptide at the CRHR2, an intracellular cAMP measurement test using a Flash plate radioactive assay (Catalog No. Cus56088; Perkin Elmer, Mass., U.S.A.) was employed.
Transfected SK—N-MC cells were plated in 96-well Biocoat tissue culture dishes (BD Biosciences, San Jose, Calif., U.S.A) overnight at 50,000 cell/well. Cells were first washed with PBS and then suspended with DMEM/F-12 without phenol red, containing […]. Suspended cells were transferred into a 96-well flash plate coated with scintillant fluid. Cells were incubated with peptides ranging from 1 pM to 1 μM, for 60 min, at 37° Celsius. Forskolin at 10 μM was used as positive control. After ligand stimulation, cells were lysed by the addition of 0.5M HCl and mixed by orbital rotation for 2 h at 4° Celsius in order to release intracellular cAMP into the media.
Media containing released intracellular cAMP was transferred to a 96-well flash plate coated with scintillant fluid containing an anti-cAMP antibody. In this assay, intracellular cAMP competes with ^125I-labeled cAMP binding to the antibody. To generate a standard curve, cAMP ranging from 2.5 to 250 pmoles/ml was included in the experiment. [^125I]-cAMP was measured on a TopCount scintillation counter (Perkin Elmer, Mass., U.S.A).
Individual agonist concentration-response curve data were fitted to the Hill equation, see formula below, using GraphPad Prism (Graphpad Software, La Jolla, Calif., U.S.A.), to provide estimates of agonist concentration needed to generate one-half maximal response (A50), and the maximal asymptote (α) and Hill slope (nH) parameters. In this equation, [A] is the agonist concentration and E is the measured effect:
For display purposes the mean fitted parameter estimates were used to generate a single E/[A] curve shown superimposed on the mean experimental data. Potency estimates for agonists, pA50, are expressed as the negative logarithm of the midpoint of each curve and listed with their standard error of measurement (SEM). Logarithm base 10 of the agonist dose ratio (Log DR) values were calculated by subtraction of the test compound pA50 value from the corresponding h-SCP (SEQ ID NO:1) control pA50 value within the same assay batch. The SEM values of the Log DR values are given by the square root of the sum of the squared SEM values of the h-SCP (SEQ ID NO:1) control and test compound pA50 values.
Human and rat peptides (see Table 10) were used on the stimulation of h-CRHR1 or h-CRHR2 transfected SK—N-MC cells in the cAMP flash plate assay. Peptides were incubated for 1 hr at 37° Celsius. Curves were calculated using non-linear regression sigmoidal concentration-response analysis calculation in GraphPad Prism. The so obtained pA50 values are shown in Table 11 in addition to literature values. […]

Structure (SMILES)	EC50	Log DR [M]
CC[C@H](C)[C@H](NC(=O)[C@H](CCC(N)=O)NC(=O)[C@H](C)NC(=O)[C@H](CCSC)NC(=O)[C@H](CC(C)C)NC(=O)[C@H](Cc1c[nH]cn1)NC(=O)[C@H](C)NC(=O)[C@H](CC(N)=O)NC(=O)[C@H](C)NC(=O)[C@H](C)NC(=O)[C@H](C)NC(=O)[C@H](CCC(N)=O)NC(=O)[C@H](C)NC(=O)[C@H](CCCNC(=N)N)NC(=O)[C@H](CC(C)C)NC(=O)[C@H](CC(N)=O)NC(=O)[C@H](CSC1CC(=O)N(CC)C1=O)NC(=O)[C@H](C)NC(=O)[C@H](CCCCN)NC(=O)[C@H](C)NC(=O)[C@@H](NC(=O)[C@H](CC(N)=O)NC(=O)[C@H](Cc1ccccc1)NC(=O)[C@H](CC(C)C)NC(=O)[C@H](CC(C)C)NC(=O)[C@H](CC(N)=O)NC(=O)[C@H](CCSC)NC(=O)[C@@H](NC(=O)[C@H](CC(N)=O)NC(=O)[C@@H](NC(=O)[C@@H]1CCCN1C(=O)[C@@H](NC(=O)[C@H](CC(=O)O)NC(=O)[C@H](CC(C)C)NC(=O)[C@H](CO)NC(=O)[C@H](CC(C)C)NC(=O)[C@@H](NC(=O)[C@H](Cc1ccccc1)NC(=O)[C@H](CCCCN)NC(=O)[C@@H](N)[C@@H](C)O)[C@@H](C)O)C(C)C)[C@@H](C)O)[C@@H](C)CC)[C@@H](C)CC)C(N)=O (some centres unmarked) [SEQ ID NO: 50, TKFTLSLDVPTNIMNLLFNIAKAC(-NES)N LRAQA AANAH LMAQI-NH2] (H-TKFTLSLDVPTNIMNLLFNIAKAC(Succinimide(1-Et,3-yl))NLRAQAAANAHLMAQI-NH2; N-terminus assumed)	0.331 nM	−0.01
CC[C@H](C)[C@H](NC(=O)[C@H](CCC(N)=O)NC(=O)[C@H](C)NC(=O)[C@H](CCSC)NC(=O)[C@H](CC(C)C)NC(=O)[C@H](Cc1c[nH]cn1)NC(=O)[C@H](C)NC(=O)[C@H](CC(N)=O)NC(=O)[C@H](C)NC(=O)[C@H](C)NC(=O)[C@H](C)NC(=O)[C@H](CCC(N)=O)NC(=O)[C@H](C)NC(=O)[C@H](CCCNC(=N)N)NC(=O)[C@H](CC(C)C)NC(=O)[C@H](CC(N)=O)NC(=O)[C@H](CCCCN)NC(=O)[C@H](C)NC(=O)[C@H](CCCCN)NC(=O)[C@H](C)NC(=O)[C@H](CSC1CC(=O)N(CC)C1=O)NC(=O)[C@H](CC(N)=O)NC(=O)[C@H](Cc1ccccc1)NC(=O)[C@H](CC(C)C)NC(=O)[C@H](CC(C)C)NC(=O)[C@H](CC(N)=O)NC(=O)[C@H](CCSC)NC(=O)[C@@H](NC(=O)[C@H](CC(N)=O)NC(=O)[C@@H](NC(=O)[C@@H]1CCCN1C(=O)[C@@H](NC(=O)[C@H](CC(=O)O)NC(=O)[C@H](CC(C)C)NC(=O)[C@H](CO)NC(=O)[C@H](CC(C)C)NC(=O)[C@@H](NC(=O)[C@H](Cc1ccccc1)NC(=O)[C@H](CCCCN)NC(=O)[C@@H](N)[C@@H](C)O)[C@@H](C)O)C(C)C)[C@@H](C)O)[C@@H](C)CC)C(N)=O (some centres unmarked) [SEQ ID NO: 51, TKFTL SLDVP TNIMN LLFNC(-NES) AKAKN LRAQA AANAH LMAQI-NH2] (H-TKFTLSLDVPTNIMNLLFNC(Succinimide(1-Et,3-yl))AKAKNLRAQAAANAHLMAQI-NH2; N-terminus assumed)	1.62 nM	0.68
CC[C@H](C)[C@H](NC(=O)[C@H](CCC(N)=O)NC(=O)[C@H](C)NC(=O)[C@H](CCSC)NC(=O)[C@H](CC(C)C)NC(=O)[C@H](Cc1c[nH]cn1)NC(=O)[C@H](C)NC(=O)[C@H](CC(N)=O)NC(=O)[C@H](C)NC(=O)[C@H](C)NC(=O)[C@H](C)NC(=O)[C@H](CCC(N)=O)NC(=O)[C@H](C)NC(=O)[C@H](CCCNC(=N)N)NC(=O)[C@H](CC(C)C)NC(=O)[C@H](CC(N)=O)NC(=O)[C@H](CCCCN)NC(=O)[C@H](C)NC(=O)[C@H](CCCCN)NC(=O)[C@H](C)NC(=O)[C@@H](NC(=O)[C@H](CSC1CC(=O)N(CC)C1=O)NC(=O)[C@H](Cc1ccccc1)NC(=O)[C@H](CC(C)C)NC(=O)[C@H](CC(C)C)NC(=O)[C@H](CC(N)=O)NC(=O)[C@H](CCSC)NC(=O)[C@@H](NC(=O)[C@H](CC(N)=O)NC(=O)[C@@H](NC(=O)[C@@H]1CCCN1C(=O)[C@@H](NC(=O)[C@H](CC(=O)O)NC(=O)[C@H](CC(C)C)NC(=O)[C@H](CO)NC(=O)[C@H](CC(C)C)NC(=O)[C@@H](NC(=O)[C@H](Cc1ccccc1)NC(=O)[C@H](CCCCN)NC(=O)[C@@H](N)[C@@H](C)O)[C@@H](C)O)C(C)C)[C@@H](C)O)[C@@H](C)CC)[C@@H](C)CC)C(N)=O (some centres unmarked) [SEQ ID NO: 52, TKFTL SLDVP TNIMN LLFC(-NES)I AKAKN LRAQA AANAH LMAQI-NH2] (H-TKFTLSLDVPTNIMNLLFC(Succinimide(1-Et,3-yl))IAKAKNLRAQAAANAHLMAQI-NH2; N-terminus assumed)	0.38 nM	0.05
CC[C@H](C)[C@H](NC(=O)[C@H](CCC(N)=O)NC(=O)[C@H](C)NC(=O)[C@H](CCSC)NC(=O)[C@H](CC(C)C)NC(=O)[C@H](Cc1c[nH]cn1)NC(=O)[C@H](C)NC(=O)[C@H](CC(N)=O)NC(=O)[C@H](C)NC(=O)[C@H](C)NC(=O)[C@H](C)NC(=O)[C@H](CCC(N)=O)NC(=O)[C@H](C)NC(=O)[C@H](CCCNC(=N)N)NC(=O)[C@H](CC(C)C)NC(=O)[C@H](CC(N)=O)NC(=O)[C@H](CCCCN)NC(=O)[C@H](C)NC(=O)[C@H](CCCCN)NC(=O)[C@H](C)NC(=O)[C@@H](NC(=O)[C@H](CC(N)=O)NC(=O)[C@H](Cc1ccccc1)NC(=O)[C@H](CSC1CC(=O)N(CC)C1=O)NC(=O)[C@H](CC(C)C)NC(=O)[C@H](CC(N)=O)NC(=O)[C@H](CCSC)NC(=O)[C@@H](NC(=O)[C@H](CC(N)=O)NC(=O)[C@@H](NC(=O)[C@@H]1CCCN1C(=O)[C@@H](NC(=O)[C@H](CC(=O)O)NC(=O)[C@H](CC(C)C)NC(=O)[C@H](CO)NC(=O)[C@H](CC(C)C)NC(=O)[C@@H](NC(=O)[C@H](Cc1ccccc1)NC(=O)[C@H](CCCCN)NC(=O)[C@@H](N)[C@@H](C)O)[C@@H](C)O)C(C)C)[C@@H](C)O)[C@@H](C)CC)[C@@H](C)CC)C(N)=O (some centres unmarked) [SEQ ID NO: 53, TKFTL SLDVP TNIMN LC(-NES)FNI AKAKN LRAQA AANAH LMAQI-NH2] (H-TKFTLSLDVPTNIMNLC(Succinimide(1-Et,3-yl))FNIAKAKNLRAQAAANAHLMAQI-NH2)	~56.2 nM	~2.22
